Here are results for eleven compounds from patent US11472803B2, “7-substituted 1-aryl-naphthyridine-3-carboxylic acid amides and use thereof” (Bayer Aktiengesellschaft, priority 2016, dated 2022).

This assay deals with T1, human M2 receptor (Homo sapiens, UniProt P08172).
T1 construct: expressed in transfected cells; host or cells: CHO-DUKX (CHO-DUKX-M2-GIRK)
T1 sequence (P08172 1-466): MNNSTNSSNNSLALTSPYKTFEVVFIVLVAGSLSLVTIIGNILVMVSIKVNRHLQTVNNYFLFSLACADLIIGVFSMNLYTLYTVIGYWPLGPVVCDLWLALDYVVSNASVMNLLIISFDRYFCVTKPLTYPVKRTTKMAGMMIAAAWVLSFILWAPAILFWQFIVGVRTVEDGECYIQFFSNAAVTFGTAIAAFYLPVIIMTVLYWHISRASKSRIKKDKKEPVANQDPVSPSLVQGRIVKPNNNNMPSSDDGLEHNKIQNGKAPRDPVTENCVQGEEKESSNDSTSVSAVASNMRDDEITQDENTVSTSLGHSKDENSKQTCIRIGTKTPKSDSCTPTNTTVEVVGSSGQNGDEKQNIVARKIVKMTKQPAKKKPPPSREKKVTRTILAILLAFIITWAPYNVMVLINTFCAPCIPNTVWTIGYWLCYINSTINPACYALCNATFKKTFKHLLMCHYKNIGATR
The experiment in a line: Functional M2-GIRK1/4 activation test: allosteric potency (EC50) and efficiency at EC20 acetylcholine. It counts as cell-based. The conditions noted are these: CHO-DUKX-M2-GIRK cells; for EC50: voltage-sensitive dye, acetylcholine at EC20, in some cases mean of two or more determinations; for Efficiency / Emax: boosting of the acetylcholine effect at EC20 acetylcholine concentration. The text has this:
The binding of orthosteric agonists (endogenous ligand: acetylcholine) to the M2 receptor leads to receptor activation or a change in conformation of the receptor in the manner of a shift in equilibrium in favour of the active receptor conformation.
The agonist-induced change in conformation of the M2 receptor results in a Gαi protein activation. […] Under physiological conditions, the result is then a selective efflux of potassium from the cell along the electrochemical gradient. […] The extent of hyperpolarization can therefore be regarded as a measure of the activation of the M2 receptor.
The test cell used is a recombinant CHO-DUKX cell line which has been stably transfected with cDNA coding for the human M2 receptor and with cDNA coding for both GIRK1/4 subunits (CHO-DUKX-M2-GIRK). The transmembrane potential, or the relative changes in the transmembrane potential as a function of substance addition or M2 activation, is determined by means of a voltage-sensitive dye (FLIPR Membrane Potential Assay Kit Blue, Molecular Devices #R8034) and the measurement of cell fluorescence using a proprietary fluorescence imaging instrument.
The sowing medium consisted of MEM alpha medium (supplemented with 5% PCS, 2% Glutamax, no genticin).
For the particular measurement, the medium was removed and the cells were laden with the volt-age-sensitive dye for at least 6 min at room temperature (30 μl of loading buffer per 384-well). This was followed, in a first measurement, by the determination of the fluorescence for the resting transmembrane potential for a period of 5 sec. Thereafter, 10 μl in each case of the test substances diluted in loading buffer were added, followed by a second measurement to determine the transmembrane potential for a period of 50 sec in 1 sec increments. Finally, the cells were admixed with 10 μl of agonist solution (acetylcholine dissolved in loading buffer). Acetylcholine was used at the concentration corresponding to the EC20, which had been determined in a preliminary test. The M2-mediated GIRK1/4 activation or hyperpolarization was then monitored in a third measurement over a period of 60 sec. The EC50 value (degree of allosteric potency of test compound) and the efficiency (measure of the boosting of the acetylcholine effect at an EC20 acetylcholine concentration) were determined with the aid of a 4-parameter logistic function (Hill function).

For the compound `O=C(NCC(F)(F)F)c1cn(-c2c(F)cc(F)cc2Cl)c2nc(N3C[C@@H](O)[C@H](O)C3)c(F)cc2c1=O` (single isomer, unassigned) [Example 222], the concentration giving a half-maximal response (EC50) turned out to be 550 nM and the Efficiency was found to be 61%.
`C[C@@H](NC(=O)c1cn(-c2c(F)cc(F)cc2Cl)c2nc(N3C[C@@H](O)[C@H](O)C3)c(F)cc2c1=O)C(F)(F)F` (single isomer, unassigned) [Example 229] had an EC50 of 260 nM and an Efficiency of 67%.
Turning to `CC(C)C(NC(=O)c1cn(-c2c(F)cc(F)cc2F)c2nc(N3CC[C@H](O)C3)c(F)cc2c1=O)C(F)(F)F` (mixture of isomers) [Example 126, 6-Fluoro-7-[(3S)-3-hydroxypyrrolidin-1-yl]-4-oxo-N-[1,1,1-trifluoro-3-methylbutan-2-yl]-1-(2,4,6-trifluorophenyl)-1,4-dihydro-1,8-naphthyridine-3-carboxamide], the EC50 amounted to 3.9 nM and the Emax worked out at 97%.
For `CCC(NC(=O)c1cn(-c2c(F)cc(F)cc2F)c2nc(N3CCOCC3)c(F)cc2c1=O)C(F)(F)C(F)(F)F` (racemic) [Example 148, 6-Fluoro-7-(morpholin-4-yl)-4-oxo-N-[1,1,1,2,2-pentafluoropentan-3-yl]-1-(2,4,6-trifluoro-phenyl)-1,4-dihydro-1,8-naphthyridine-3-carboxamide], in that order: 18.7 nM and 96%.
Compound `O=C(NC(C(F)(F)F)C(F)(F)F)c1cn(-c2c(F)cc(F)cc2F)c2nc(N3CCC(CO)(CO)CC3)c(F)cc2c1=O` [Example 191, 7-[4,4-bis(hydroxymethyl)piperidin-1-yl]-6-fluoro-N-(1,1,1,3,3,3-hexafluoropropan-2-yl)-4-oxo-1-(2,4,6-trifluorophenyl)-1,4-dihydro-1,8-naphthyridine-3-carboxamide] yielded a concentration giving a half-maximal response (EC50) of 48 nM and an Emax of 100%.
As to `O=C(N[C@@H](C1CC1)C(F)(F)F)c1cn(-c2c(F)cc(F)cc2Cl)c2nc(N3CC(CO)(CO)C3)c(F)cc2c1=O` (single isomer, unassigned) [Example 70], the EC50 amounted to 100 nM and the Emax is 86%.
In turn, `O=C(N[C@@H](C1CC1)C(F)(F)F)c1cn(-c2c(F)cc(F)cc2F)c2nc(N3C[C@@H](O)CC3=O)c(F)cc2c1=O` [Example 59, N-[(1S)-1-Cyclopropyl-2,2,2-trifluoroethyl]-6-fluoro-7-[(4S)-4-hydroxy-2-oxopyrrolidin-1-yl]-4-oxo-1-(2,4,6-trifluorophenyl)-1,4-dihydro-1,8-naphthyridine-3-carboxamide] returned an EC50 of 91.5 nM and a maximal effect (Emax) of 97%.
Taken in the same sequence, the figures for `CCC(COC(F)(F)F)NC(=O)c1cn(-c2c(F)cc(F)cc2F)c2nc(N3C[C@@H](O)[C@H](O)C3)c(F)cc2c1=O` (stereo partly drawn) [Example 26, 7-[(3R,4R)-3,4-dihydroxypyrrolidin-1-yl]-6-fluoro-4-oxo-N-[(2)-1-(trifluoromethoxy)butan-2-yl]-1-(2,4,6-trifluorophenyl)-1,4-dihydro-1,8-naphthyridine-3-carboxamide] were 4.03 nM and 100%.
For `CN(C)c1nc2c(cc1F)c(=O)c(C(=O)NC(C)(C)C(F)(F)F)cn2-c1c(F)cc(F)cc1F` [Example 62, 7-(Dimethylamino)-6-fluoro-4-oxo-N-(1,1,1-trifluoro-2-methylpropan-2-yl)-1-(2,4,6-trifluoro-phenyl)-1,4-dihydro-1,8-naphthyridine-3-carboxamide], in that order: 4.1 nM and 88%.
With `O=C(NCC(F)(F)F)c1cn(-c2c(F)cc(F)cc2Cl)c2nc(N3C[C@@H](O)[C@H](O)C3)c(F)cc2c1=O` (single isomer, unassigned) [Example 223], the EC50 was found to be 26 nM and the Efficiency is on record as 86%.
The compound `CN(C)c1nc2c(cc1F)c(=O)c(C(=O)NC(C)(C)C)cn2-c1c(F)cc(F)cc1F` [Example 60, N-tert-Butyl-7-(dimethylamino)-6-fluoro-4-oxo-1-(2,4,6-trifluorophenyl)-1,4-dihydro-1,8-naphthyridine-3-carboxamide] registered an EC50 of 3.6 nM and an Emax of 100%.
